The structures appear in SMILES notation. Where two headings read alike, the source gives them in different places.

Data set [1] addresses T1, Rac1 (Homo sapiens, UniProt P63000).
T1 construct: His (N)
Nature of the data set: Rac Activation AlphaScreen Assay (Rac1 AS). The format is biochemical. The method, then:
The IC50 values reported in Tables 1-6 were obtained from the Rae Activation AlphaScreen Assay (Rac1 AS) assay described in subsection 2 under the section entitled “In Vitro Assays”. “†” represents an IC50 of greater than 100 uM; “††” represents an IC50 of greater than 10 uM and less than 50 uM; and “†††” represents an IC50 of less than 10 uM. “POC” means percent of control. […] Lower POC values reflect greater inhibition. “NT” means not tested.
2. Rac Activation AlphaScreen Assay (Rac1 AS)
AlphaScreen® assays were performed in 96-well microplates in a final reaction volume of 60 μL. Recombinant His-Rac1, recombinant GST-PBD (PAK Binding Domain), donor and acceptor beads (PerkinElmer), and inhibitors were incubated in exchange buffer (20 mM Tris pH 7.5, 50 mM NaCl, 1 mM MgCl2, 1 mM EDTA, 500 nM GTPyS (guanosine 5′-[Y-thio]triphosphate)) at 37° C. Readings were performed on a Tecan M1000 pro microplate reader after 1 hour. Data was analyzed using the GraphPad Prism software (GraphPad Software, Inc.), and IC50 (dose leading to 50% disruption of complex) was calculated from the dose-response curves.
(In Alpha technology, singlet oxygen from a donor bead excites a nearby acceptor bead.)

For data set [2], the target named is T2, Rac-GEF Vav2 with nucleotide-free Rac1 (G15A) (Homo sapiens, UniProt P63000, G15A).
T2 construct: host or cells: MDA-MB-435
The following applies: MDA-MB-435 breast cancer cells; <5 mM; cited from earlier work.

The conditions of data set [3]: oral administration in mice; cited from earlier work.
The target in data set [4] is T3, Rac-GEF Tiam-1 with Rac1 (G15A) (Homo sapiens, UniProt P63000, G15A).
T3 construct: host or cells: MDA-MB-435
The following applies: MDA-MB-435 cells; similar concentrations (<5 mM); cited from earlier work.

For data set [5], the target named is T4, Rac (Homo sapiens, UniProt P63000).
T4 construct: host or cells: fibroblasts
To be noted: relative to NSC23766; cited from earlier work.

For data set [6] the following is noted: in vivo, cited from earlier work.
In data set [7] the test system is animal models of estrogen positive and HER2 positive breast cancer, prostate cancer, melanoma and colorectal cancer. The following applies: single agent and in combination with standard of care; cited from earlier work.

For the molecule `Cc1ccc(-c2nnc3ccc(-c4cccc(NC(=O)c5cccc(SC(C)(C)C)c5)c4)nn23)o1` [Compound 111], in data set [1] (Rac1 AS assay, dose leading to 50% disruption of complex, read-out: IC50), the IC50 was under 10 µM.
Turning to `CCn1c2ccccc2c2cc(Nc3ccnc(NCCCN4CCOCC4)n3)ccc21` [EHop-016], the “association of the Rac-GEF Vav2 with nucleotide-free Rac1 (G15A)” value in data set [2] is “inhibits”. For the same molecule, in data set [3], the systemic exposure entry is “low systemic exposure”. Further, in data set [4], the “association of the Rac-GEF Tiam-1 with Rac1 (G15A)” value is recorded as “does not affect”. Further, the “more efficient than NSC23766 as an inhibitor of Rac activity” value in data set [5] is listed as 100 fold. Besides, the IC50 in data set [1] (AlphaLisa assay, read-out: IC50 inhibitory concentration versus wild type Rac1) was about 10 µM.
Turning to `FC(F)(F)c1ccc2c(SCCCCCCn3cnc(CN4CCOCC4)c3)ccnc2c1` [GYS32661], the oral bioavailability entry in data set [6] (po) is recorded as “not orally bioavailable”. The plasma half-life entry in data set [6] is reported as “relatively short”. Further, the “activity against animal models of cancer” value in data set [7] is recorded as “very good activity”.

These data come from patent publication US20250235453A1, “TRIAZOLOPYRIDAZINE COMPOUNDS USEFUL AS RAC1 INHIBITORS” (Revere Pharmaceuticals, priority 2021, published 2025).
